Patent publication US20230382889A1 (Volastra Therapeutics, Inc., priority 2022, published 2023)

Each molecule was assayed against hKIF18A (1-374) (Homo sapiens (Human), UniProt Q8NI77) (assay: Inhibition of KIF18A microtubule-dependent ATPase activity (ADP-Glo)). Conditions: 4 nM hKIF18A (1-374).
Sequence of hKIF18A (1-374) (Q8NI77 1-374): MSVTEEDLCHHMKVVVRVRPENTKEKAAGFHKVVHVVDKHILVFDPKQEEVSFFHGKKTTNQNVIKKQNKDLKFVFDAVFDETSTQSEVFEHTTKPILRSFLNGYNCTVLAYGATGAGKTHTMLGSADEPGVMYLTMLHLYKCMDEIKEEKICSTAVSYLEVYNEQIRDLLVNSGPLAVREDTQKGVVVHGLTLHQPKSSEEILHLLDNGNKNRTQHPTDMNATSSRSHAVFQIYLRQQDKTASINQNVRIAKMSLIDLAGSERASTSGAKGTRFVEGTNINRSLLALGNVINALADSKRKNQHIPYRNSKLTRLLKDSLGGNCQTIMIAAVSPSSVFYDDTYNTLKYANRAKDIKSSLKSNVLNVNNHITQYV
Assay type: biochemical
Description: Test compounds were plated in a 3× dilution scheme in a 384-well plate. Assay buffer: 80 mM PIPES (pH 6.9), 1 mM MgCl2, 75 mM KCl, 1 mM EGTA, 1 mM DTT, 0.01% BSA, 0.005% Tween-20, 1 μM Taxol in H2O. […] After incubation at room temperature for 30 min, 2.5 μL of microtubule mix was added [0.2 mg/mL pre-formed microtubules, 2.0 mM ATP in assay buffer], the plate was centrifuged for 30 s and then incubated at 28° C. for 60 min. 5 μL of Promega® ADP-Glo Max R1 was added, the plate was centrifuged for 30 s, and the mixture incubated for 4 h at room temperature. 10 μL of Promega® ADP-Glo Max R2 was added, the plate centrifuged for 30 s, and incubated for 60 min at room temperature. Luminescence was measured with an Envision plate reader, and % Inhibition was calculated for each well as: ([max−min]−[test−min])/[max−min]. IC50 values were calculated from concentration vs. % Inhibition data via a four-parameter variable slope model.
CS(=O)(=O)Nc1ccc(-n2cc(-c3ccn(C4CCC(F)(F)CC4)n3)nn2)c(N2CCC3(CC2)CC3)c1 [Compound 41, N-(4-(4-(1-(4,4-difluorocyclohexyl)-1H-pyrazol-3-yl)-1H-1,2,3-triazol-1-yl)-3-(6-azaspiro[2.5]octan-6-yl)phenyl)methanesulfonamide] gave an IC50 of 16 nM. CS(=O)(=O)Nc1ccc(-n2cc(-c3cccc4c3OC3(CCCCC3)O4)nn2)c(N2CCC3(CC2)CC3)c1 [Compound 128, N-(3-(6-azaspiro[2.5]octan-6-yl)-4-(4-(spiro[benzo[d][1,3]dioxole-2,1′-cyclohexan]-4-yl)-1H-1,2,3-triazol-1-yl)phenyl)methanesulfonamide] gave an IC50 of 98 nM. Cc1cc(-c2cn(-c3ccc(NS(C)(=O)=O)cc3N3CCC4(CC3)CC4)nn2)nc(N2CCC(F)(F)CC2)n1 [Compound 21, N-(4-(4-(2-(4,4-difluoropiperidin-1-yl)-6-methylpyrimidin-4-yl)-1H-1,2,3-triazol-1-yl)-3-(6-azaspiro[2.5]octan-6-yl)phenyl)methanesulfonamide] gave an IC50 of 32 nM. For CS(=O)(=O)Nc1ccc(-n2cc(-c3cccc(CN4CCC(F)(F)CC4)n3)nn2)c(N2CCC3(CC2)CC3)c1 [Compound 23, N-(4-(4-(6-((4,4-difluoropiperidin-1-yl)methyl)pyridin-2-yl)-1H-1,2,3-triazol-1-yl)-3-(6-azaspiro[2.5]octan-6-yl)phenyl)methanesulfonamide], the IC50 was 11 nM. With Cc1ncc(-c2cn(-c3ccc(NS(=O)(=O)CCO)cc3N3CCC4(CC3)CC4)nn2)nc1N1CCC(F)(F)CC1 [Compound 124, N-(4-(4-(6-(4,4-difluoropiperidin-1-yl)-5-methylpyrazin-2-yl)-1H-1,2,3-triazol-1-yl)-3-(6-azaspiro[2.5]octan-6-yl)phenyl)-2-hydroxyethane-1-sulfonamide] the IC50 was 7.3 nM. With CS(=O)(=O)Nc1ccc(-n2cc(-c3cccc(C(O)C4CCCC4)n3)nn2)c(N2CCC3(CC2)CC3)c1 (centres unmarked) [Compound 22, N-(4-(4-(6-(cyclopentyl(hydroxy)methyl)pyridin-2-yl)-1H-1,2,3-triazol-1-yl)-3-(6-azaspiro[2.5]octan-6-yl)phenyl)methanesulfonamide] the IC50 was 11 nM. O=S(=O)(CCO)Nc1ccc(-n2cc(-c3nc(N4CCC(F)(F)CC4)sc3F)nn2)c(N2CCC3(CC2)CC3)c1 [Compound 93, N-(4-(4-(2-(4,4-difluoropiperidin-1-yl)-5-fluorothiazol-4-yl)-1H-1,2,3-triazol-1-yl)-3-(6-azaspiro[2.5]octan-6-yl)phenyl)-2-hydroxyethane-1-sulfonamide] showed an IC50 of 10 nM. For O=S(=O)(CCO)Nc1ccc(-n2cc(-c3ccc(F)c(N4CCCCC4)n3)nn2)c(N2CCC3(CC2)CC3)c1 [Compound 136, N-(4-(4-(5-fluoro-6-(piperidin-1-yl)pyridin-2-yl)-1H-1,2,3-triazol-1-yl)-3-(6-azaspiro[2.5]octan-6-yl)phenyl)-2-hydroxyethane-1-sulfonamide], the IC50 was 6.5 nM. CS(=O)(=O)Nc1ccc(-n2cc(-c3cccc(N4CCC(F)(F)CC4)n3)nn2)c(N2CCC(C(F)F)CC2)c1 [Compound 19, N-(3-(4-(difluoromethyl)piperidin-1-yl)-4-(4-(6-(4,4-difluoropiperidin-1-yl)pyridin-2-yl)-1H-1,2,3-triazol-1-yl)phenyl)methanesulfonamide] showed an IC50 of 14 nM. Cc1cc(-c2cn(-c3ccc(NS(C)(=O)=O)cc3N3CCC4(CC3)CC4)nn2)nc(N2CCC(F)(F)CC2)c1 [Compound 14, N-(4-(4-(6-(4,4-difluoropiperidin-1-yl)-4-methylpyridin-2-yl)-1H-1,2,3-triazol-1-yl)-3-(6-azaspiro[2.5]octan-6-yl)phenyl)methanesulfonamide] was tested, and the IC50 was 39 nM. CCS(=O)(=O)Nc1ccc(-n2cc(-c3ccc(F)c(N4CCC(F)(F)CC4)n3)nn2)c(N2CCC3(CC2)CC3)c1 [Compound 148, N-(4-(4-(6-(4,4-difluoropiperidin-1-yl)-5-fluoropyridin-2-yl)-1H-1,2,3-triazol-1-yl)-3-(6-azaspiro[2.5]octan-6-yl)phenyl)ethanesulfonamide] showed an IC50 of 31 nM.
